# Tests used:
# [1] = tested on: cirrhotic model mice; experiment: Pathological examination of liver (HE staining, Masson staining) in CCl4-induced liver cirrhosis model mice, Embodiment 3; assay type: in vivo, C57BL/6N mice; details: 25 mg/kg intragastrically 20 days
# Source text: (§1) 120 SPF male C57BL/6N mice, 6-8 weeks old and 16-20 g body weight, were purchased from Beijing Huafukang Experimental Animal Technology Co., Ltd. (production license number: SOCK (Jing) 2019-0008). According to body weight, they were randomly divided into 12 groups (n=10): blank control group, model group, positive control group, A-01 low dose group, A-01 high dose group, A-02 low dose group, A-02 high dose group, B-01 low-dose group, B-01 high-dose group, B-02 low-dose group, B-02 high-dose group, and C high-dose group.
# Except for the blank control group, liver cirrhosis model of mice in other groups was prepared by the method of carbon tetrachloride (CCl4)-induction treatment. The modeling protocol was as follows: (1) Each mouse was intraperitoneally injected with 10% CCl4 (diluted with olive oil) at 7 μL/g body weight, twice a week for a total of 8 weeks; mice of the blank control group were injected intraperitoneally with the same amount of olive oil solvent. (2) from the 6th week, two mice were selected and killed 48 hours after the last injection every week. The appearance of the liver was observed. After the appearance was in line with the characteristics of cirrhosis (the 8th week), the liver tissue was fixed with formalin. HE staining and Masson staining were used to evaluate the model of cirrhosis. […]
# [2] = tested on: cirrhotic model mice; experiment: Serum biochemical testing (ALT, AST, TBil, MAO, ALB) in CCl4-induced liver cirrhosis model mice, Embodiment 3; assay type: in vivo
# Source text: as §1
# Except for the blank control group, liver cirrhosis model of mice in other groups was prepared by the method of carbon tetrachloride (CCl4)-induction treatment. The modeling protocol was as follows: (1) Each mouse was intraperitoneally injected with 10% CCl4 (diluted with olive oil) at 7 μL/g body weight, twice a week for a total of 8 weeks; mice of the blank control group were injected intraperitoneally with the same amount of olive oil solvent. (2) from the 6th week, two mice were selected and killed 48 hours after the last injection every week. The appearance of the liver was observed. After the appearance was in line with the characteristics of cirrhosis (the 8th week), the liver tissue was fixed with formalin. HE staining and Masson staining were used to evaluate the model of cirrhosis.
# After the successful modeling, the mice in the positive control group were given intragastrically 25 mg/kg sorafenib; the mice in the low or high dose groups of A-01, A-02, B-01 and B-02 were given by intraperitoneal injection at 2.5 or 10 mg/kg respectively of the corresponding test material; the mice in the C high dose group were given by intraperitoneal injection at a dose of 40 mg/kg of C; and the mice in the blank control group and the model group were given intraperitoneally physiological saline at 10 mL/kg. The administration was once a day for 20 consecutive days.
# After the administration was completed, blood was collected from mouse orbit, and sera were obtained for biochemical testing of albumin (ALbumin, ALB), total bilirubin (TBil), alanine Alanine aminotransferase (ALT), aspartate aminotransferase (AST) and monoamine oxidase (MAO) using Zhongsheng Beikong Kit and biochemical analyzer (Siemens). The detection method was performed in strict accordance with the kit instructions.
# [3] = 25 mg/kg intragastrically 20 days
# [4] = 25 mg/kg intragastrically 20 days, listed as positive control
# [5] = 25 mg/kg intragastrically 20 days, listed as positive control drug
smiles,measurement,setting,value
"CNC(=O)c1cc(Oc2ccc(NC(=O)Nc3ccc(Cl)c(C(F)(F)F)c3)cc2)ccn1 [sorafenib, Sorafenib]",HE staining: liver damages versus model group,[1],significant reduction of liver damages
same,serum ALT level versus model group,[2]; [3],significantly reduced
same,serum AST level versus model group,[2]; [3],significantly reduced
same,serum TBIL level versus model group,[2]; [3],significantly reduced
same,serum ALB level versus model group,[2]; [4],did not significantly affect
same,serum MAO activity versus model group,[2]; [4],did not decrease
same,serum ALB level versus model group,[2]; [5],no significant effect
same,serum MAO activity versus model group,[2]; [5],no effect
same,serum MAO activity,"[2]; 25 mg/kg intragastrically 20 days, model group 21.5±0.7",21.3±2.1 U/L
same,serum AST activity,"[2]; 25 mg/kg intragastrically 20 days, model group 192.0±11.3",165.5±11.6 U/L
same,serum ALT activity,"[2]; 25 mg/kg intragastrically once a day for 20 days, model group 188.5±4.9",42.8±5.4 U/L
